ChEMBL document CHEMBL1127220, “3-hydroxy-3-cyclobutene-1,2-dione: Application of novel carboxylic acid bioisostere to an in-vivo active non-tetrazole angiotensin-II antagonist” (Bioorg Med Chem Lett, 1993)

Test system: Rattus norvegicus
Test: Maximum % change of AII-supported portion of mean arterial pressure at 3 mg/kg, i.d.
Type: functional, Artery
Details: route intraduodenal

Row | SMILES | Change [%]
1 | O=S(=O)(Nc1ccccc1-c1ccc(CNc2nc(C(F)(F)F)nc3c2CCCC3)cc1)C(F)(F)F | -31
2 | O=c1c(O)c(-c2ccccc2-c2ccc(CNc3nc(C(F)(F)F)nc4c3CCCC4)cc2)c1=O | -52
3 | CCCCc1nc(Cl)c(CO)n1Cc1ccc(-c2ccccc2-c2nnn[nH]2)cc1 [LOSARTAN] | -72
4 | FC(F)(F)c1nc2c(c(NCc3ccc(-c4ccccc4-c4nn[nH]n4)cc3)n1)CCCC2 | -75
5 | O=C(O)c1ccccc1-c1ccc(CNc2nc(C(F)(F)F)nc3c2CCCC3)cc1 | -62
